{
  "source": "paper PMC8146408",
  "about": "(Viruses, 2021)",
  "key": {"Cytotoxicity assay (XTT)": {"test": "Cytotoxicity assay (XTT)", "format": "cell-based", "conditions": "human, HepG2 cells, XTT; mean ± SD, at least two independent experiments; read-out: CC50 (concentration of a compound causing 50% cytotoxicity)"}, "[1]": {"test": "Aqueous solubility (thermodynamic, DPBS)", "format": "physicochemical", "conditions": "Dulbecco's Phosphate-Buffered Saline (DPBS), aqueous buffer, thermodynamic from solid, pH 7.2, n = 3"}, "HBV replication": {"test_system": "HBV replication", "test": "Antiviral assay (HBV replication luciferase reporter in HuH-7 cells)", "format": "cell-based, Hepatitis B virus", "conditions": "mean ± SD, at least two independent experiments"}, "HepG2 cells": {"test_system": "HepG2 cells", "test": "Cytotoxicity assay (XTT)", "format": "cell-based", "conditions": "for Concentration without cytotoxicity: cytotoxicity assay"}, "[2]": {"test": "Microsomal stability, human liver microsomes", "format": "in vitro ADME", "conditions": "pH 7.4, cofactor NADPH, n = 3, read-out: Microsomal Stability t1/2"}, "HBV Cp (C150 dimer)": {"target": "T1, HBV Cp (C150 dimer) (Hepatitis B virus genotype D subtype adw, UniProt P03147, R150C)", "T1 construct": "made in house; host or cells: E. coli BL21 (DE3), pET11a", "T1 sequence (P03147 1-150 R150C)": "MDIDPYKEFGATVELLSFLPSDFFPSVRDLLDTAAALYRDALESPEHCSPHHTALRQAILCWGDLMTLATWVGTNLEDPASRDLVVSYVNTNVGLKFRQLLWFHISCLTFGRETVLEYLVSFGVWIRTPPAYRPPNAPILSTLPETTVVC", "test": "Thermal shift assay (TSA)", "format": "binding", "conditions": "20 µM compound, 1% DMSO"}, "[3]": {"test": "Plasma stability, mouse plasma", "format": "in vitro ADME", "conditions": "CD-1, pH 7.4, n = 3, read-out: Plasma Stability t1/2"}, "[4]": {"test": "Microsomal stability, mouse liver microsomes", "format": "in vitro ADME", "conditions": "pH 7.4, cofactor NADPH, n = 3, read-out: Microsomal Stability t1/2"}, "[5]": {"test": "Plasma stability, human plasma", "format": "in vitro ADME", "conditions": "pH 7.4, n = 3, read-out: Plasma Stability t1/2"}},
  "data": [
    {"molecule": "Cc1cc(NC(=O)c2cc(C#N)c(=O)[nH]c2C)ccc1F", "note": "[ZW-1840]", "values": [
      {"measurement": "CC50", "setting": "Cytotoxicity assay (XTT)", "result": "> 100", "unit": "µM"}
    ]},
    {"molecule": "Cc1cc(NC(=O)c2cnc3nc4ccccc4n3c2C)ccc1F", "note": "[ZW-1841]", "values": [
      {"measurement": "solubility at 72 h", "setting": "[1]", "result": "0.31 ± 0.03", "unit": "µM"},
      {"measurement": "EC50 (concentration of a compound inhibiting HBV replication by 50%)", "setting": "HBV replication", "result": "single-digit"},
      {"measurement": "Concentration without cytotoxicity", "setting": "HepG2 cells", "result": "≥ 100", "unit": "µM"},
      {"measurement": "CC50", "setting": "Cytotoxicity assay (XTT)", "result": "> 100", "unit": "µM"},
      {"measurement": "half-life at 1 µM", "setting": "[2]", "result": "> 120", "unit": "min"},
      {"measurement": "TSA profile (effect on HBV Cp melting curve)", "setting": "HBV Cp (C150 dimer)", "result": "bind to HBV Cp and affect capsid formation and stability"},
      {"measurement": "half-life at 1 µM", "setting": "[3]", "result": "> 360", "unit": "min"},
      {"measurement": "half-life at 1 µM", "setting": "[4]", "result": "32.6 ± 1.6", "unit": "min"},
      {"measurement": "half-life at 1 µM", "setting": "[5]", "result": "> 360", "unit": "min"}
    ]},
    {"molecule": "Cc1cn2c(C)c(C(=O)Nc3ccc(F)c(C)c3)cnc2n1", "note": "[ZW-1842]", "values": [
      {"measurement": "CC50", "setting": "Cytotoxicity assay (XTT)", "result": "> 100", "unit": "µM"}
    ]},
    {"molecule": "CC1=C(C(=O)Nc2ccc(F)c(C)c2)C=Nc2ccccc2N1", "note": "[ZW-1843]", "values": [
      {"measurement": "CC50", "setting": "Cytotoxicity assay (XTT)", "result": "> 100", "unit": "µM"}
    ]},
    {"molecule": "CSc1c(C(=O)Nc2ccc(F)c(C)c2)c(C)[nH]c(=O)c1C#N", "note": "[ZW-1845]", "values": [
      {"measurement": "CC50", "setting": "Cytotoxicity assay (XTT)", "result": "> 100", "unit": "µM"}
    ]},
    {"molecule": "Cc1cc(NC(=O)c2c(C)[nH]c(=O)c3c(N)n[nH]c23)ccc1F", "note": "[ZW-1847]", "values": [
      {"measurement": "solubility at 72 h", "setting": "[1]", "result": "2.14 ± 0.03", "unit": "µM"},
      {"measurement": "EC50 (concentration of a compound inhibiting HBV replication by 50%)", "setting": "HBV replication", "result": "single-digit"},
      {"measurement": "Concentration without cytotoxicity", "setting": "HepG2 cells", "result": "≥ 100", "unit": "µM"},
      {"measurement": "CC50", "setting": "Cytotoxicity assay (XTT)", "result": "> 100", "unit": "µM"},
      {"measurement": "half-life at 1 µM", "setting": "[2]", "result": "> 120", "unit": "min"},
      {"measurement": "TSA profile (effect on HBV Cp melting curve)", "setting": "HBV Cp (C150 dimer)", "result": "bind to HBV Cp and affect capsid formation and stability"},
      {"measurement": "half-life at 1 µM", "setting": "[3]", "result": "> 360", "unit": "min"},
      {"measurement": "half-life at 1 µM", "setting": "[4]", "result": "> 120", "unit": "min"},
      {"measurement": "half-life at 1 µM", "setting": "[5]", "result": "> 360", "unit": "min"}
    ]},
    {"molecule": "CC1Oc2c(cccc2C(=O)Nc2cccc(C(F)F)c2)NC1=O", "note": "(centres unmarked) [ZW-1888]", "values": [
      {"measurement": "CC50", "setting": "HepG2 cells; HepG2 cells, XTT, mean ± SD, at least two independent experiments, read-out: CC50 (concentration of a compound causing 50% cytotoxicity)", "result": "46.6 ± 2.4", "unit": "µM"},
      {"measurement": "CC50", "setting": "Cytotoxicity assay (XTT)", "result": 47, "unit": "µM"},
      {"measurement": "TSA profile (effect on HBV Cp melting curve)", "setting": "HBV Cp (C150 dimer)", "result": "bind to HBV Cp and affect capsid formation and stability"}
    ]},
    {"molecule": "O=C1NC2(CCCC2)C(=O)N1Cc1cn(-c2ccccc2)nc1-c1ccccc1", "note": "[ZW-1889]", "values": [
      {"measurement": "CC50", "setting": "Cytotoxicity assay (XTT)", "result": "58.2 ± 5.6", "unit": "µM"}
    ]},
    {"molecule": "Cc1cc(C)c(CNC(=O)c2cn(Cc3ccccc3)nc2-c2ccccc2)c(=O)[nH]1", "note": "[ZW-1918]", "values": [
      {"measurement": "CC50", "setting": "Cytotoxicity assay (XTT)", "result": "47.6 ± 0.2", "unit": "µM"}
    ]},
    {"molecule": "COc1cccc(N2CC(C(=O)Nc3cccc(Cl)c3C)CC2=O)c1", "note": "(centres unmarked) [ZW-1929]", "values": [
      {"measurement": "CC50", "setting": "Cytotoxicity assay (XTT)", "result": "41.3 ± 1.7", "unit": "µM"}
    ]},
    {"molecule": "Cc1cccc(NC(=O)c2cccc(CN3C(=O)CNC3=O)c2)c1", "note": "[ZW-1946]", "values": [
      {"measurement": "CC50", "setting": "Cytotoxicity assay (XTT)", "result": "44.1 ± 0.6", "unit": "µM"}
    ]}
  ]
}
